{
  "source": "paper PMC7450057",
  "about": "“Enhancing intracellular accumulation and target engagement of PROTACs with reversible covalent chemistry” (Nature Communications, 2020)",
  "key": {"[1]": {"tested_on": "BTK C481S mutant", "conditions": "cited from earlier work"}, "[2]": {"tested_on": "MOLM-14 cells", "experiment": "AlamarBlue cell viability assay, MOLM-14", "conditions": "for Cell viability, MOML-14: Supplementary Figure 7, replicates", "quoted_text": "The IC50 was calculated using GraphPad Prism software with a four-parameter dose-response curve fit."}, "[3]": {"tested_on": "Mino", "experiment": "IC50 in MCL cell lines (Supplementary Table 2), Mino", "conditions": "Mino; triplicates"}, "[4]": {"tested_on": "Rec-1", "experiment": "IC50 in MCL cell lines (Supplementary Table 2), Rec-1", "conditions": "for Cell Viability (%): Rec-1 cells, replicate wells"}, "[5]": {"tested_on": "Jeko-1", "experiment": "IC50 in MCL cell lines (Supplementary Table 2), Jeko-1", "conditions": "for Cell Viability (%): Jeko-1 cells, replicate wells"}, "[6]": {"tested_on": "Maver-1", "experiment": "IC50 in MCL cell lines (Supplementary Table 2), Maver-1", "conditions": "Maver-1; triplicates"}, "[7]": {"target": "T1, NanoLuc-CRBN fusion (Homo sapiens, UniProt Q96SW2)", "T1 construct": "host or cells: HEK 293T/17", "T1 sequence (Q96SW2 whole entry, the tested form may be a part)": "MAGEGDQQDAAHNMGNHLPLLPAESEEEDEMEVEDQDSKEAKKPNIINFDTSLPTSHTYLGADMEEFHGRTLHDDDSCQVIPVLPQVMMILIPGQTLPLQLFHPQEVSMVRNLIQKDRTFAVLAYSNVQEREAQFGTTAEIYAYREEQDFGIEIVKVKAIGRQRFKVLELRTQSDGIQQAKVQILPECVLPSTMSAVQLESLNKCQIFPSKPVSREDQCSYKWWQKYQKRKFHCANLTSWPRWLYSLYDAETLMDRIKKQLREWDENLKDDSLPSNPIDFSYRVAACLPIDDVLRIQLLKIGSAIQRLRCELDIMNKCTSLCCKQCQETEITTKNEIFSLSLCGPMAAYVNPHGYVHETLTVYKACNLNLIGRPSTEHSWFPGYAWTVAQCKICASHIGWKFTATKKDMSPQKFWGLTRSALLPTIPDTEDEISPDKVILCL", "T1 sequence (Q16531 whole entry partner, the tested form may be a part)": "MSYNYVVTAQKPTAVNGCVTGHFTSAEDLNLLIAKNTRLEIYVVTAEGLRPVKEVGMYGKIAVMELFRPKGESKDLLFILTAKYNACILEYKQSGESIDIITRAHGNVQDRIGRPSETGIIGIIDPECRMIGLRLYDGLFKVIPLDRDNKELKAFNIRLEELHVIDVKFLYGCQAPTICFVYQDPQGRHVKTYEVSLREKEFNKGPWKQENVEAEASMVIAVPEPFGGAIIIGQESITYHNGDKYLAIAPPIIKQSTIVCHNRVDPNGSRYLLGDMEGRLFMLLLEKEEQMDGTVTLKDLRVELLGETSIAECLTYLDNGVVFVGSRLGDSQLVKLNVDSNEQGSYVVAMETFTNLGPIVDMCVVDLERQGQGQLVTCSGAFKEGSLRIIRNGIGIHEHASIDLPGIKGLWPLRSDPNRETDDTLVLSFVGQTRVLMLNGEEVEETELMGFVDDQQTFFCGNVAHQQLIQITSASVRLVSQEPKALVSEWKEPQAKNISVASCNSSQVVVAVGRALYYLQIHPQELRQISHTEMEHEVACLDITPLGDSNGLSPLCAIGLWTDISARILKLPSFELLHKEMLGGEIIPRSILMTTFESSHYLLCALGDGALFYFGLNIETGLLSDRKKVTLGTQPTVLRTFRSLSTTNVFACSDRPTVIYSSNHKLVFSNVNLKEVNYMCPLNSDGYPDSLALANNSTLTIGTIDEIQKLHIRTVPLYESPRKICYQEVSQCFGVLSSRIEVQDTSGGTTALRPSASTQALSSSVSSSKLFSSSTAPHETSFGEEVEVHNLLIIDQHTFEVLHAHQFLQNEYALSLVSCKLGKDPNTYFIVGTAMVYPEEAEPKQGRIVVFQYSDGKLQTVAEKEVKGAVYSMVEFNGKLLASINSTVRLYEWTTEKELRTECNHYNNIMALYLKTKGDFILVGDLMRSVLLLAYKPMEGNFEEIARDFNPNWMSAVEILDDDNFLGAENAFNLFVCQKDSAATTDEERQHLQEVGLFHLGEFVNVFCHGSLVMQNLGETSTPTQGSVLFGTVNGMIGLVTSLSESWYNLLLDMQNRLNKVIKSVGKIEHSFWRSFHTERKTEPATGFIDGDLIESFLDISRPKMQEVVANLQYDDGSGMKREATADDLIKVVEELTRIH", "experiment": "NanoBRET CRBN in-cell target engagement assay", "type": "cell-based", "conditions": "Figure 3h, replicates", "description": "The target engagement assay for BTK or CRBN was from Promega (BTK kit, Cat. No. N2500; CRBN kit, Cat. No. CS1810C136) and was performed according to the manufacture’s instruction with some modifications. […] After 2 h incubation, the 3X Nano-Glo® Substrate with NanoLuc® extracellular inhibitor were added to cells and developed for 3 min at room temperature. BRET signals were collected using a BioTek SYNERGY H1 microplate reader equipped with a 450/80-nm BP filter for donor emission and a 610-nm LP filter for acceptor emission. BRET Ratio was calculated with the equation: [(Acceptor sample/Donor sample)–(Acceptor no tracer control/Donor no tracer control)] × 1000. The IC50 of the compound against its BTK or CRBN tracer was calculated using GraphPad Prism software."}, "[8]": {"tested_on": "truncated Cereblon protein", "experiment": "CRBN binding assay (fluorescence quenching)", "conditions": "for Fluorescence Intensity: Supplementary Figure 11, replicates", "description": "The Kd values of compounds to CRBN were measured based on fluorescence quenching after compounds binding to CRBN. […] All the compounds were dissolved in DMSO (10 mM) as stock solutions. The final drug concentration is 100 nM. […] Fluorescence intensity values for control wells (assay buffer only) were subtracted from each data point prior to analysis. The Kd was calculated using GraphPad Prism with the following equation curve fit. I=I0−If×Kd/P0+Kd+If"}, "[9]": {"target": "BTK (Homo sapiens, UniProt Q06187)", "sequence (Q06187 whole entry)": "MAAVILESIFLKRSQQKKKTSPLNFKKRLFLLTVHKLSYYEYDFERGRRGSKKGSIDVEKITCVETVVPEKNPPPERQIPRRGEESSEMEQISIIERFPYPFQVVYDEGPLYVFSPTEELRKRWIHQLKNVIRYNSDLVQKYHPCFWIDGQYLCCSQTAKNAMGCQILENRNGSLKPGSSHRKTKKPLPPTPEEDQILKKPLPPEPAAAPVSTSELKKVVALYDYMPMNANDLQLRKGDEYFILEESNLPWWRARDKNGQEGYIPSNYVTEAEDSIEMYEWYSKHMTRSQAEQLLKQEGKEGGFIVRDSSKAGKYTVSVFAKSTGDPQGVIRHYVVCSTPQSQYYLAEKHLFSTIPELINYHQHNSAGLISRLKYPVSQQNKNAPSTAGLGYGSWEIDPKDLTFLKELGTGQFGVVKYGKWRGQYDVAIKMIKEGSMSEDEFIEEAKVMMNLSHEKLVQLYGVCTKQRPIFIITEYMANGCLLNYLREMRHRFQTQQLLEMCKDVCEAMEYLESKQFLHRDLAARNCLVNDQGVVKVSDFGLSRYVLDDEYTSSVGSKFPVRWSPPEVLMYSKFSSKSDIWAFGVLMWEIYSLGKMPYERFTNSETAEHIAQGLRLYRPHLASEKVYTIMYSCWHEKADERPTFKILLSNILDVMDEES", "experiment": "BTK degradation in MOLM-14 cells (western blot)", "type": "cell-based", "parameters": "endogenous in cells; host or cells: MOLM-14"}, "[10]": {"experiment": "Permeability by lipid-PAMPA method (Pharmaron)", "type": "in vitro ADME", "conditions": "for recovery at 16 h, 10 μM: PAMPA", "description": "The permeability of compounds was measured using Lipid-PAMPA method by Pharmaron. Preparation of stock solutions: testosterone and methotrexate were used as control compounds in this assay. The stock solutions of positive controls were prepared in DMSO or acetonitrile at the concentration of 10 mM. Prepare a stock solution of compounds in DMSO at the concentration of 10 mM, and further dilute with PBS (pH 7.4). […]\nAssay procedures: prepare a 1.8% solution (w/v) of lecithin in dodecane, and sonicate the mixture to ensure a complete dissolution. Carefully pipette 5 μL of the lecithin/dodecane mixture into each acceptor plate well (top compartment), avoiding pipette tip contact with the membrane. Immediately after the application of the artificial membrane (within 10 min), add 300 μL of PBS (pH 7.4) solution to each well of the acceptor plate. Add 300 μL of drug-containing solutions to each well of the donor plate (bottom compartment) in triplicate. Slowly and carefully place the acceptor plate into the donor plate, making sure the underside of the membrane is in contact with the drug-containing solutions in all wells. Replace the plate lid and incubate at 25 °C, 60 rpm for 16 h. After incubation, aliquots of 50 μL from each well of acceptor and donor plate are transferred into a 96-well plate. Add 450 μL of methanol (containing IS: 100 nM Alprazolam, 200 nM Caffeine, 100 nM Tolbutamide) into each well. Cover with plate lid. Vortex at 750 rpm for 100 s. Samples were centrifuged at 3220 × g for 20 min. Determine the compound concentrations by LC/MS/MS. The effective permeability (Pe), in units of centimeter per second, can be calculated using the following equation: LogPe=LogC×−Ln1−drugacceptor/drugequilibrium"}},
  "note": "“And” between values parts separate entries of the source, which are not always exact repeats. Equal values may be shown once. “Also recorded” adds a separate entry of the source. Read-outs that look alike come from different tables or passages of the source.",
  "data": [
    {"smiles": "C=CC(=O)N1CCC[C@@H](n2nc(-c3ccc(Oc4ccccc4)cc3)c3c(N)ncnc32)C1", "note": "[IRC-Ctrl, ibrutinib, reference compound]", "values": [
      {"measurement": "IC50", "setting": "[1]", "result": 4.6, "unit": "nM"},
      {"measurement": "IC50", "setting": "[2]; Homo sapiens, MOLM-14, 72 h, read-out: Cell viability IC50", "result": 330, "unit": "nM"},
      {"measurement": "Cell viability, MOML-14", "setting": "[2]; drug concentration 1.00E-05 M", "result": "2.829 and 3.671 and 10.6075 and 4.63 and 7.964"},
      {"measurement": "Cell viability, MOML-14", "setting": "[2]; drug concentration 1.60E-08 M", "result": "78.5123 and 71.6258 and 103.431 and 81.3409"},
      {"measurement": "Cell viability, MOML-14", "setting": "[2]; drug concentration 2.00E-06 M", "result": "11.3315 and 13.8066 and 22.1242 and 13.453 and 22.4778"},
      {"measurement": "Cell viability, MOML-14", "setting": "[2]; drug concentration 3.20E-09 M", "result": "74.4713 and 69.3023 and 89.0692 and 86.5941 and 80.2465"},
      {"measurement": "Cell viability, MOML-14", "setting": "[2]; drug concentration 4.00E-07 M", "result": "35.4256 and 44.6356 and 55.26 and 47.599 and 43.2718"},
      {"measurement": "Cell viability, MOML-14", "setting": "[2]; drug concentration 6.40E-10 M", "result": "87.7559 and 71.8279 and 83.9002"},
      {"measurement": "Cell viability, MOML-14", "setting": "[2]; drug concentration 8.00E-08 M", "result": "71.3059 and 57.3983 and 86.3921 and 79.7919 and 76.879"},
      {"measurement": "IC50", "setting": "[3]", "result": 3800, "unit": "nM"},
      {"measurement": "IC50", "setting": "[4]; Rec-1, triplicates", "result": 6200, "unit": "nM"},
      {"measurement": "Cell Viability (%)", "setting": "[4]; 1.50E-05 M", "result": "8.535% and 9.796% and 10.5906%"},
      {"measurement": "Cell Viability (%)", "setting": "[4]; 1.88E-06 M", "result": "74.3495% and 75.6404% and 76.9194%"},
      {"measurement": "Cell Viability (%)", "setting": "[4]; 3.00E-05 M", "result": "2.364% and 2.247% and 2.265%"},
      {"measurement": "Cell Viability (%)", "setting": "[4]; 3.75E-06 M", "result": 66.2063, "unit": "%"},
      {"measurement": "Cell Viability (%)", "setting": "[4]; 4.69E-07 M", "result": "84.8624% and 81.0762% and 81.5842%"},
      {"measurement": "Cell Viability (%)", "setting": "[4]; 7.50E-06 M", "result": "44.5947% and 45.7572% and 45.7871%"},
      {"measurement": "Cell Viability (%)", "setting": "[4]; 9.38E-07 M", "result": "81.9548% and 81.1808% and 88.2512%"},
      {"measurement": "IC50", "setting": "[5]; Jeko-1, triplicates", "result": 300, "unit": "nM"},
      {"measurement": "Cell Viability (%)", "setting": "[5]; 1.50E-05 M", "result": "2.151% and 2.02% and 1.9313%"},
      {"measurement": "Cell Viability (%)", "setting": "[5]; 1.88E-06 M", "result": "2.568% and 2.43% and 2.412%"},
      {"measurement": "Cell Viability (%)", "setting": "[5]; 3.00E-05 M", "result": "2.333% and 2.338% and 2.111%"},
      {"measurement": "Cell Viability (%)", "setting": "[5]; 3.75E-06 M", "result": "2.338% and 2.397% and 2.358%"},
      {"measurement": "Cell Viability (%)", "setting": "[5]; 4.69E-07 M", "result": "5.039% and 20.4969% and 18.3979%"},
      {"measurement": "Cell Viability (%)", "setting": "[5]; 7.50E-06 M", "result": "2.252% and 2.304% and 1.966%"},
      {"measurement": "Cell Viability (%)", "setting": "[5]; 9.38E-07 M", "result": "2.5504% and 5.547% and 2.871%"},
      {"measurement": "IC50", "setting": "[6]", "result": 5400, "unit": "nM"}
    ]},
    {"smiles": "Nc1cccc2c1C(=O)N(C1CCC(=O)NC1=O)C2=O", "note": "(stereo not drawn) [Pomalidomide, pomalidomide, reference compound]", "values": [
      {"measurement": "NanoBRET(%)", "setting": "[7]; drug concentration 1.00E-05 M", "result": "8.749% and 2.427%"},
      {"measurement": "NanoBRET(%)", "setting": "[7]; drug concentration 1.60E-08 M", "result": "79.9835% and 62.224% and 75.9099%"},
      {"measurement": "NanoBRET(%)", "setting": "[7]; drug concentration 2.00E-06 M", "result": "10.9943% and 16.7844%"},
      {"measurement": "NanoBRET(%)", "setting": "[7]; drug concentration 3.20E-09 M", "result": "86.2914% and 88.5513% and 84.0314%"},
      {"measurement": "NanoBRET(%)", "setting": "[7]; drug concentration 4.00E-07 M", "result": "54.7588% and 35.141% and 58.1892%"},
      {"measurement": "NanoBRET(%)", "setting": "[7]; drug concentration 8.00E-08 M", "result": "88.9359% and 73.8405% and 79.0012%"},
      {"measurement": "Fluorescence Intensity", "setting": "[8]; CRBN 0 μM", "result": "9876.2 and 9503.2 and 9587.2"},
      {"measurement": "Fluorescence Intensity", "setting": "[8]; CRBN 0.734375 μM", "result": "7603.2 and 7913.2 and 7829.2"},
      {"measurement": "Fluorescence Intensity", "setting": "[8]; CRBN 1.46875 μM", "result": "6654.2 and 6940.2 and 6542.2"},
      {"measurement": "Fluorescence Intensity", "setting": "[8]; CRBN 2.9375 μM", "result": "5927.2 and 5996.2 and 5981.2"},
      {"measurement": "Fluorescence Intensity", "setting": "[8]; CRBN 5.875 μM", "result": "5201.2 and 5168.2 and 5152.2"},
      {"measurement": "Fluorescence Intensity", "setting": "[8]; CRBN 11.75 μM", "result": "4654.2 and 4688.2 and 4502.2"},
      {"measurement": "Fluorescence Intensity", "setting": "[8]; CRBN 23.5 μM", "result": "4529.2 and 4338.2 and 4613.2"},
      {"measurement": "Kd", "setting": "[8]; truncated Cereblon protein, fluorescence quenching, triplicates", "result": 1400, "unit": "nM"},
      {"measurement": "Quantification anti-BTK / anti-β-actin (BTK level vs DMSO)", "setting": "[9]; Figure 2d, DMSO = 100 (mean)", "result": 81.7787},
      {"measurement": "BTK degradation (in words)", "setting": "[9]; MOLM-14 cells, 200 nM, 24 h (Fig. 2d)", "result": "Neither RC-Ctrl, nor pomalidomide, nor a combination of both caused BTK degradation; also recorded: neither the RC-1 warhead, nor pomalidomide, nor a combination of both caused BTK degradation"}
    ]},
    {"smiles": "CN(Cc1cnc2nc(N)nc(N)c2n1)c1ccc(C(=O)N[C@@H](CCC(=O)O)C(=O)O)cc1", "note": "[Methotrexate, methotrexate, reference compound]", "values": [
      {"measurement": "recovery at 16 h, 10 μM", "setting": "[10]; Recovery%", "result": 105, "unit": "%"}
    ]},
    {"smiles": "C[C@]12CC[C@H]3[C@@H](CCC4=CC(=O)CC[C@@]43C)[C@@H]1CC[C@@H]2O", "note": "[Testosterone, testosterone, reference compound]", "values": [
      {"measurement": "recovery at 16 h, 10 μM", "setting": "[10]; Mean, read-out: Recovery%", "result": 91.1, "unit": "%"},
      {"measurement": "recovery at 16 h, 10 μM", "setting": "[10]; single replicates, read-out: Recovery%", "result": 88.7, "unit": "%"},
      {"measurement": "Recovery%", "setting": "[10]; single replicates", "result": "88.88% and 95.84%"},
      {"measurement": "-Log Pe", "setting": "[10]; single replicates, 10 μM, PBS pH 7.4, 25 °C, 16 h, Pe in centimeter per second", "result": "4.51 and 4.29 and 4.30"}
    ]}
  ]
}
